The values below come from US10689344B2, “Biphenylamide derivative Hsp90 inhibitors” (University of Kansas, priority 2013, dated 2020).

The subject of one test is SKBr3 cells. The following applies: cited from earlier work.
The test system of test [1] is Hsp90-dependent client proteins (Her2, Raf, Akt) in MCF-7 cells. Briefly: Western blot analyses of Hsp90-dependent client proteins from MCF-7 cell lysate. Particulars: for non-Hsp90-dependent protein actin (western blot): FIG. 1; for Hsp90-dependent client proteins Her2, Raf, and Akt (western blot): FIG. 1, at the same concentration needed to manifest anti-proliferative activity (H 5-fold, L 1/2). It counts as cell-based. The procedure:
FIG. 1—Western blot analyses of Hsp90-dependent client proteins from MCF-7 breast cancer cell lysate upon treatment with biphenyl derivatives. H represents a concentration equal to 5-fold of the anti-proliferative activity. L represents a concentration ½ of the anti-proliferative activity. Geldanamycin (G, 0.5 μM) and dimethylsulfoxide (D, 100%) were employed as positive and negative controls.
FIGS. 2A & 2B—Western blot analyses of Hsp90-dependent client proteins from MCF-7 breast cancer cell lysate upon treatment with biphenyl derivatives. Concentrations (in μM) were indicated above each line. H represents a concentration equal to 5-fold of the anti-proliferative activity. L represents a concentration equal to 0.5-fold of the anti-proliferative activity. Geldanamycin (GDA, 0.5 μM) and dimethylsulfoxide (DMSO, 100%) were employed as positive and negative controls.
FIG. 3—Western blot analyses of Hsp90-dependent client proteins from MCF-7 breast cancer cell lysate upon treatment with compound 6l. Concentrations (in μM) were indicated above each line, and geldanamycin (GDA, 0.5 μM) and dimethylsulfoxide (DMSO) were employed as positive and negative controls.
MCF-7 cells were cultured as described above and treated with various concentrations of drug, GDA in DMSO (1% DMSO final concentration), or vehicle (DMSO) for 24 h. Cells were harvested in cold PBS and lysed in RIPA lysis buffer containing 1 mM PMSF, 2 mM sodium orthovanadate, and protease inhibitors on ice for 1 h. Lysates were clarified at 14000 g for 10 min at 4° C. Protein concentrations were determined using the Pierce BCA protein assay kit per the manufacturer's instructions. Equal amounts of protein (20 μg) were electrophoresed under reducing conditions, transferred to a nitrocellulose membrane, and immunoblotted with the corresponding specific antibodies. Membranes were incubated with an appropriate horseradish peroxidase-labeled secondary antibody, developed with a chemiluminescent substrate, and visualized.
In general terms: A western blot detects proteins with antibodies after separation by electrophoresis.

Test [2] has as its system SKBr3 (estrogen receptor negative, HER2 over-expressing breast cancer cells). Briefly: Anti-proliferation assay (MTS/PMS, 72 h), SKBr3. In kind it is cell-based. Particulars: Homo sapiens. The essentials:
(§1)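 Cells seeded at 2000/well, attached overnight, then exposed to compound at varying concentrations (1% DMSO final) for 72 h at 37° C, 5% CO2. Viability by MTS/PMS, normalised to 1% DMSO controls as 100% proliferation; IC50 from separate triplicate experiments.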

Test [3] concerns MCF-7 (estrogen receptor positive breast cancer cells). The test is described as follows: Anti-proliferation assay (MTS/PMS, 72 h), MCF-7. It counts as cell-based. The following applies: Homo sapiens. The essentials: as §1
Test [4] concerns JMAR (Head and Neck Cancer). Briefly: Activity of compounds in cancer cell lines, JMAR. In kind it is cell-based. The following applies: Table 12, JMAR (Head and Neck Cancer). The text has this:
Biological activity of these compounds of the present disclosure may be measured using a variety of different methods and techniques. In some embodiments of the present disclosure, the activity is measuring using anti-proliferation assays to determine an IC50 value for particular cell lines such as JMAR and MCF-7. Additionally, in other embodiments, the activity of the instant compounds is measuring using Western blot and measuring protein expression in a variety of different downstream poteins regulated by Hsp90.
(§2) Cells were maintained in a 1:1 mixture of Advanced DMEM/F12 (Gibco) supplemented with non-essential amino acids, L-glutamine (2 mM), streptomycin (500 μg/mL), penicillin (100 units/mL), and 10% FBS. Cells were grown to confluence in a humidified atmosphere (37° C., 5% CO2), seeded (2000/well, 100 μL) in 96-well plates, and allowed to attach overnight. Compound at varying concentrations in DMSO (1% DMSO final concentration) was added, and cells were returned to the incubator for 72 h. At 72 h, the number of viable cells was determined using an MTS/PMS cell proliferation kit (Promega) per the manufacturer's instructions. Cells incubated in 1% DMSO were used at 100% proliferation, and values were adjusted accordingly. IC50 values were calculated from separate experiments performed in triplicate using GraphPad Prism.

Another test deals with SKME128 (Melanoma). The test is described as follows: Activity of compounds in cancer cell lines, SKME128. In kind it is cell-based. Particulars: Table 12, SKME128 (Melanoma). The procedure:
as §2

[5] abbreviates: MCF-7 cells, FIG. 1, all concentrations tested.
Where [6] appears, read: SK-BR-3, Table 1, ortho, meta and para biphenyl cores.
Setting [7] is: SK-BR-3, Table 9, para-meta biphenyl core with prenylated benzylamide.
Where [8] appears, read: MCF7, Table 1, ortho, meta and para biphenyl cores.
[9] abbreviates: MCF7, Table 9, para-meta biphenyl core with prenylated benzylamide.

What is called IC50 is the concentration that gives 50% inhibition. Read a high IC50 as weaker potency.

Take `CO[C@@H]1[C@@H](OC(N)=O)[C@@H](O)[C@H](Oc2ccc3c(O)c(NC(=O)c4ccc(O)c(CC=C(C)C)c4)c(=O)oc3c2C)OC1(C)C` [Novobiocin]: the “efficiency as Hsp90 C-terminal inhibitor” value with SKBr3 cells is roughly 700 µM.
Take `COc1cccc(-c2cc(C(=O)Nc3cccc(-c4ccc(OC5CCN(C)CC5)cc4)c3)ccc2OC)c1` [Compound 6a, 3′,6-dimethoxy-N-(4′-((1-methylpiperidin-4-yl)oxy)-[1,1′-biphenyl]-3-yl)-[1,1′-biphenyl]-3-carboxamide]: the “Hsp90 client proteins Her2 and Raf-1 (western blot)” value in test [1] (MCF-7 cell lysates, FIG. 2A, concentrations that mirror anti-proliferative IC50 values) is reported as “degraded”. The “non-Hsp90-dependent protein actin (western blot)” value in test [1] (MCF-7 cells) was “not affected”. Further, the “Hsp90 levels (western blot)” value in test [1] (setting [5]) is recorded as “remained constant”. Also, the “Hsp90-dependent client proteins Her2, Raf, and Akt (western blot)” value in test [1] (MCF-7 cells) is on record as “degradation in a concentration-dependent manner”. The IC50 in test [2] (setting [6]) was determined as 3650 ± 140 nM; in test [2] (setting [7]), 3470 ± 470 nM; in test [3] (setting [8]), 1250 ± 20 nM; in test [3] (setting [9]), 2710 ± 400 nM.
As for `COc1cccc(-c2cc(C(=O)Nc3ccc(-c4ccc(OC5CCN(C)CC5)cc4)cc3)ccc2OC)c1` [Compound 9a, 3′,6-dimethoxy-N-(4′-((1-methylpiperidin-4-yl)oxy)-[1,1′-biphenyl]-4-yl)-[1,1′-biphenyl]-3-carboxamide], the “non-Hsp90-dependent protein actin (western blot)” value in test [1] (MCF-7 cells) is reported as “not affected”. Moreover, the “Hsp90 levels (western blot)” value in test [1] (setting [5]) was “remained constant”. For the same molecule, the “Hsp90-dependent client proteins Her2, Raf, and Akt (western blot)” value in test [1] (MCF-7 cells) is “degradation in a concentration-dependent manner”. Besides, the IC50 was 470 ± 60 nM in test [2] (setting [6]); 470 ± 60 nM in test [2] (SK-BR-3, Table 3, substituted para-para biphenyl core); 470 ± 60 nM in test [2] (SK-BR-3, Table 5, modified linkers in para-para biphenyl core); 470 ± 60 nM in test [2] (SK-BR-3, Table 7, para-para biphenyl core with modified ether groups); 470 ± 60 nM in test [2] (SK-BR-3, Table 8, para-para biphenyl core with substituted biphenylamide group); 710 ± 20 nM in test [3] (setting [8]). Further, the IC50 in test [3] (MCF7, Table 3, substituted para-para biphenyl core) turned out to be 710 ± 20 nM; in test [3] (MCF7, Table 5, modified linkers in para-para biphenyl core), 710 ± 20 nM; in test [3] (MCF7, Table 7, para-para biphenyl core with modified ether groups), 710 ± 20 nM; in test [3] (MCF7, Table 8, para-para biphenyl core with substituted biphenylamide group), 710 ± 20 nM.
In the case of `COc1ccc(C(=O)Nc2ccc(Nc3ccc(OC4CCN(C)CC4)cc3)cc2)cc1` [drawing 162], in test [4], the IC50 was determined as 9.7 nM.
As to `CN1CCC(Oc2ccc(-c3ccc(NC(=O)c4ccc(C(C)(C)C)cc4)cc3)cc2)CC1` [drawing 163], in the test on SKME128 (Melanoma), half-maximal inhibition (IC50) was put at 480 nM.
Molecule `CN1CCC(Oc2ccc(-c3cccc(NC(=O)c4ccc(Br)cc4)c3)cc2)CC1` [drawing 161] yielded an IC50 in test [4] of 110 nM.
On to `CN1CCC(Oc2ccc(-c3cccc(NC(=O)c4ccc(Br)cc4)c3)cc2)CC1` [Compound 6l, 4-Bromo-N-(4′-((1-methylpiperidin-4-yl)oxy)-[1,1′-biphenyl]-3-yl)benzamide], for which, in test [1] (MCF-7 cell lysates, FIG. 3), the “Hsp90-dependent client proteins Her2, Raf-1 and p-Akt (western blot)” value is on record as “degraded in a concentration dependent manner”; the “Hsp90 levels (western blot)” value was “remained unchanged”; the “actin levels (western blot)” value was “remained constant”. This molecule also returned a 50% inhibitory concentration (IC50) in test [2] (SK-BR-3, Table 2, para-meta biphenyl core with substituted benzylamide) of 1940 ± 110 nM. The IC50 in test [3] (MCF7, Table 2, para-meta biphenyl core with substituted benzylamide) worked out at 880 ± 70 nM.
Consider `CC(C)=CCc1cc(C(=O)Nc2cccc(-c3ccc(OC4CCN(C)CC4)cc3)c2)ccc1O` [Compound 3a], for which the “Her2, Raf-1 and p-Akt (western blot, concentration-dependent analysis)” value in test [1] (MCF-7 cell lysates, FIG. 2B) was “degradation of Her2, Raf-1 and p-Akt”. Moreover, the figures for the concentration for half-maximal inhibition (IC50) in test [2] (setting [7]) and in test [3] (setting [9]) were 2940 ± 110 nM and 2210 ± 60 nM, respectively.
